Legend:
Type in all cases: in vivo
[1] = test system: barnyardgrass (Echinochloa crus-galli); test: Test B pre-/postemergence plant response
How it was run: (§1)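 Scoring used a 0–100 scale (100 = complete control) by visual comparison with untreated plants after approximately 10 days in the greenhouse. Compounds, in surfactant-containing non-phytotoxic solvent, were sprayed onto soil at planting or onto 2–10 cm seedlings.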

[2] = test system: corn (Zea mays); test: Test B pre-/postemergence plant response
How it was run: as §1

[3] = test system: giant foxtail (Setaria faberii); test: Test B pre-/postemergence plant response
How it was run: as §1

[4] = test system: pigweed (Amaranthus retroflexus); test: Test B pre-/postemergence plant response
How it was run: as §1

[5] = test system: wheat (Triticum aestivum); test: Test B pre-/postemergence plant response
How it was run: as §1

[6] = test system: barnyardgrass (Echinochloa crus-galli); test: Test C flooded paddy test plant response; conditions: Flood, 250 g ai/ha; scale of 0 to 100 where 0 is no effect and 100 is complete control; 13 to 15 days
How it was run: (§2)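 Visual injury ratings (0, no effect; 100, complete control) were assigned after 13 to 15 days in a greenhouse, comparing treated plants with controls. Compounds had been added straight into paddy water over 2-leaf-stage plants flooded to 3 cm.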

[7] = test system: ducksalad (Heteranthera limosa); test: Test C flooded paddy test plant response; conditions: Flood, 250 g ai/ha; scale of 0 to 100 where 0 is no effect and 100 is complete control; 13 to 15 days
How it was run: as §2

[8] = test system: rice (Oryza sativa); test: Test C flooded paddy test plant response; conditions: Flood, 250 g ai/ha; scale of 0 to 100 where 0 is no effect and 100 is complete control; 13 to 15 days
How it was run: as §2

[9] = test system: small-flower umbrella sedge (Cyperus difformis); test: Test C flooded paddy test plant response; conditions: Flood, 250 g ai/ha; scale of 0 to 100 where 0 is no effect and 100 is complete control; 13 to 15 days
How it was run: as §2

[10] = test system: johnsongrass (Sorghum halepense); test: Test D pre-/postemergence plant response; conditions: Postemergence; for Plant response rating, Johnsongrass: scale 0 to 100, 0 no effect, 100 complete control
How it was run: (§3)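 Two application timings were run together: preemergence onto seeded loam–sand pots, and postemergence onto 1- to 4-leaf plants (2 to 18 cm) in peat/vermiculite medium with starter nutrients. Formulation was a non-phytotoxic solvent with surfactant. Ratings, 0 to 100, were made visually versus controls after 13 to 15 greenhouse days.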

[11] = test system: lambsquarters (Chenopodium album); test: Test D pre-/postemergence plant response; conditions: Postemergence
How it was run: as §3

[12] = test system: morningglory (Ipomoea coccinea); test: Test D pre-/postemergence plant response; conditions: Postemergence
How it was run: as §3

[13] = test system: soybean (Glycine max); test: Test D pre-/postemergence plant response; conditions: Postemergence
How it was run: as §3

[14] = test system: velvetleaf (Abutilon theophrasti); test: Test D pre-/postemergence plant response; conditions: Postemergence
How it was run: as §3

[15] = test system: waterhemp (common waterhemp, Amaranthus rudis); test: Test D pre-/postemergence plant response; conditions: Postemergence
How it was run: as §3

[16] = test system: winter wheat (Triticum aestivum); test: Test D pre-/postemergence plant response; conditions: Postemergence
How it was run: as §3

[17] = 31 g ai/ha, Preemergence, 0 to 100 scale where 0 is no effect and 100 is complete control
[18] = 125 g ai/ha, postemergence, 0 to 100 scale, 0 no effect, 100 complete control
[19] = Postemergence, 31 g ai/ha, 0 to 100 scale (0 no effect, 100 complete control)
[20] = Preemergence, 125 g ai/ha, 0 to 100 scale (0 no effect, 100 complete control)
[21] = 31 g ai/ha, scale 0 to 100 (0 no effect, 100 complete control)
[22] = 62 g ai/ha, scale 0 to 100, 0 no effect, 100 complete control
[23] = 125 g ai/ha, scale 0 to 100, 0 no effect, 100 complete control

Q: What does the source list for `FC(F)c1cc(-c2ccccc2Oc2ncc(Br)cn2)on1` [Compound 212]?
A: Plant response rating, Barnyardgrass [1, 17]: 10; Plant response rating, Barnyardgrass [1, 18]: 30; Plant response rating, Barnyardgrass [1, 19]: 0; Barnyardgrass plant response rating [1, 20]: 60; Plant response rating, Corn [2, 18]: 20; Plant response rating, Corn [2, 19]: 10; Plant response rating, Foxtail, Giant [3, 17]: 60; Plant response rating, Foxtail, Giant [3, 18]: 70; Plant response rating, Foxtail, Giant [3, 19]: 10; Foxtail, Giant plant response rating [3, 20]: 100; Plant response rating, Pigweed [4, 17]: 100; Plant response rating, Pigweed [4, 18]: 100; Plant response rating, Pigweed [4, 19]: 90; Pigweed plant response rating [4, 20]: 100; Plant response rating, Wheat [5, 18]: 10; Plant response rating, Wheat [5, 19]: 0; Barnyardgrass plant response rating [6]: 0; Ducksalad plant response rating [7]: 75; Rice plant response rating [8]: 20; Sedge, Umbrella plant response rating [9]: 75; Plant response rating (scale 0 to 100), Johnsongrass ([10]; 16 g ai/ha): 5; Johnsongrass plant response rating [10, 21]: 5; Plant response rating, Johnsongrass ([10]; 62 g ai/ha): 20; Plant response rating, Johnsongrass ([10]; 125 g ai/ha): 20; Plant response rating (scale 0 to 100), Lambsquarters ([11]; 16 g ai/ha): 40; Lambsquarters plant response rating [11, 21]: 80; Lambsquarters plant response rating [11, 22]: 98; Plant response rating, Lambsquarters [11, 23]: 98; Plant response rating (scale 0 to 100), Morningglory ([12]; 16 g ai/ha): 75; Morningglory plant response rating [12, 21]: 98; Morningglory plant response rating [12, 22]: 75; Plant response rating, Morningglory [12, 23]: 98; Plant response rating (scale 0 to 100), Soybean ([13]; 16 g ai/ha): 60; Soybean plant response rating [13, 21]: 70; Soybean plant response rating [13, 22]: 85; Plant response rating, Soybean [13, 23]: 90; Plant response rating (scale 0 to 100), Velvetleaf ([14]; 16 g ai/ha): 20; Velvetleaf plant response rating [14, 21]: 50; Velvetleaf plant response rating [14, 22]: 60; Plant response rating, Velvetleaf [14, 23]: 90; Plant response rating (scale 0 to 100), Waterhemp ([15]; 16 g ai/ha): 80; Waterhemp plant response rating [15, 21]: 98; Waterhemp plant response rating [15, 22]: 100; Plant response rating, Waterhemp [15, 23]: 100; Plant response rating (scale 0 to 100), Wheat ([16]; 16 g ai/ha): 0; Wheat plant response rating [16, 21]: 5; Wheat plant response rating [16, 22]: 5; Plant response rating, Wheat [16, 23]: 15
